Common to all, as to assay: Test 1 of anti-proliferative activity against tumor cells (Cell-Titer Glo)
Common to all, as to format: cell-based

In assay [1] the test system is Human colorectal cancer cell line HCT116. The protocol:
(§1) Cell culture: HCT116 cells and SKBR3 cells were cultured in McCoy's 5a medium containing 10% fetal bovine serum+1% penicillin-streptomycin at 37° C. and 5% CO2, and OVCAR3 cells were cultured in 1640 medium containing 20% fetal bovine serum+2 μg/mL bovine insulin+1% penicillin-streptomycin at 37° C. and 5% CO2. Cells in logarithmic growth phase were suitable for the experiment.
(§2) Detection of cell proliferation activity: The inhibitory activity of the compounds on the proliferation of the three cell lines HCT116, SKBR3 and OVCAR3 was detected using Cell-Titer Glo reagent. HCT116 cells (1500 cells per well), SKBR3 cells (3000 cells per well) and OVCAR3 cells (5000 cells per well) were seeded in 96-well plates and cultured at 37° C. and 5% CO2 for 24 h. The solution of the compound to be tested (the compound was dissolved in DMSO with the concentration of the compound being 1 mM, then the compound was diluted to 3 μM with DMSO, with 3-fold dilution and a total of 9 concentrations, and 10 μL of the prepared compound solution was transferred to a 96-well plate with the final concentration of 0-300 nM) was added. The cells were placed at 37° C. and 5% CO2 for further culture. HCT116 cells were cultured for 3 days, and SKBR3 cells and OVCAR3 cells were cultured for 5 days. The cell viability was detected by adding Cell-Titer Glo reagent.
(§3) Additionally, a negative control group and a positive control group were provided as Bottom and Top, respectively. In the negative control group, the cells were not added, only the same volume of medium was added, and other operations were consistent with those in the experimental group; in the positive control group, the test compound was not added, only the same volume of DMSO was added, and other operations were consistent with those in the experimental group.
(§4) Data analysis: The % compound inhibition was calculated, and fitting was performed to obtain IC50 of the compound.
(§5) % Compound inhibition=1−100%*(Signal−Bottom)/(Top−Bottom).
(§6) Signal represents the signal value of the experimental group, Bottom represents the average signal value of the negative control group, and Top represents the average signal value of the positive control group.

Assay [2] relates to human ovarian cancer cell line OVCAR3. The procedure: as §1, §2, §3, §4, §5, §6
For assay [3], the system named is human breast cancer cell line SKBR3. The procedure:
as §1, §2, §3, §4, §5, §6

Where [4] appears, read: Homo sapiens, HCT-116, 72 h, read-out: HCT116 Anti-proliferative activity IC50 (nM), HCT116 cells, cultured 3 days with compound, Cell-Titer Glo.
The mark [5] stands for this setting: Homo sapiens, OVCAR-3, 120 h, read-out: OVCAR3 Anti-proliferative activity IC50 (nM).
Where [6] appears, read: Homo sapiens, SK-BR-3, 120 h, read-out: SKBR3 Anti-proliferative activity IC50 (nM), SKBR3 cells, cultured 5 days with compound, Cell-Titer Glo.

The source of these data is patent publication US20250270227A1, “CAMPTOTHECIN DERIVATIVE, AND PHARMACEUTICAL COMPOSITION AND USE THEREOF” (SIMCERE ZAIMING PHARMACEUTICAL CO., LTD., priority 2021, published 2025).

Like-named read-outs stand apart in the source and are kept apart here.

The IC50 is the concentration needed to halve the response being measured. Consider `CC[C@@]1(O)C(=O)OCc2c1cc1n(c2=O)Cc2c-1nc1cc(F)c(Cl)c(F)c1c2CNC(=O)C(O)C1CC1` (single isomer, unassigned) [Compound 23-P2], for which the IC50 in assay [1] (HCT116 cells, cultured 3 days with compound, Cell-Titer Glo, read-out: HCT116 Anti-proliferative activity IC50) was found to be 9.5 nM; in assay [2] (OVCAR3 cells, cultured 5 days with compound, Cell-Titer Glo, read-out: OVCAR3 Anti-proliferative activity IC50), 1.5 nM; in assay [3] (SKBR3 cells, cultured 5 days with compound, Cell-Titer Glo, read-out: SKBR3 Anti-proliferative activity IC50), 4.5 nM.

Consider `CC[C@@]1(O)C(=O)OCc2c1cc1n(c2=O)Cc2c-1nc1cc(Cl)c(C)cc1c2CNC(=O)CO` [Compound 6, (S)-N-((8-chloro-4-ethyl-4-hydroxy-9-methyl-3,14-dioxo-3,4, 12,14-tetrahydro-1H-pyrano[3′,4′:6,7]indolizino[1,2-b]quinolin-11-yl)methyl)-2-hydroxyacetamide], for which the IC50 was 12.6 nM in assay [1] (setting [4]), 2.1 nM in assay [2] (setting [5]) and 4.8 nM in assay [3] (setting [6]).

`CC[C@@]1(O)C(=O)OCc2c1cc1n(c2=O)Cc2c-1nc1ccc3c(c1c2CNC(=O)C(O)C1CC1)CCC3` (stereo partly drawn) [Compound 13, 2-cyclopropyl-N-(((S)-8-ethyl-8-hydroxy-9,12-dioxo-2,3,8,9, 12,14-hexahydro-1H,11H-cyclopentadieno[f]pyrano[3′,4′:6,7]indolizino [1,2-b]quinolin-15-yl)methyl)-2-hydroxyacetamide]: the results for the half-maximal inhibitory concentration (IC50) in assay [1] (setting [4]) and in assay [2] (setting [5]) were 8 nM and 0.7 nM, respectively.

As to `CC[C@@]1(O)C(=O)OCc2c1cc1n(c2=O)Cc2c-1nc1cc(F)c(Cl)c(F)c1c2CNC(=O)CO` [Compound 21, (S)-N-((9-chloro-4-ethyl-8,10-difluoro-4-hydroxy-3,14-dioxo-3,4,12,14-tetrahydro-1H-pyrano[3′,4′:6,7]indolizino[1,2-b]quinolin-11-yl)methyl)-2-hydroxyacetamide], the IC50 in assay [1] (setting [4]) turned out to be 7.1 nM; in assay [2] (setting [5]), 1.7 nM; in assay [3] (setting [6]), 4 nM.

On to `CC[C@@]1(O)C(=O)OCc2c1cc1n(c2=O)Cc2c-1nc1cc(F)c(Cl)c(F)c1c2CNC(=O)C(C)(C)O` [Compound 22, (S)-N-((9-chloro-4-ethyl-8,10-difluoro-4-hydroxy-3,14-dioxo-3,4,12,14-tetrahydro-1H-pyrano[3′,4′:6,7]indolizino[1,2-b]quinolin-11-yl)methyl)-2-hydroxy-2-methylpropanamide], for which the IC50 in assay [1] (setting [4]) was found to be 4 nM; in assay [2] (setting [5]), 1.4 nM; in assay [3] (setting [6]), 3.5 nM.

As to `CC[C@@]1(O)C(=O)OCc2c1cc1n(c2=O)Cc2c-1nc1cc(F)c(Cl)c(F)c1c2CNC(=O)C(O)C1CC1` (stereo partly drawn) [Compound 23, N-(((S)-9-chloro-4-ethyl-8,10-difluoro-4-hydroxy-3,14-dioxo-3,4,12,14-tetrahydro-1H-pyrano[3′,4′:6,7]indolizino[1,2-b]quinolin-11-yl)methyl)-2-cyclopropyl-2-hydroxyacetamide], the IC50 in assay [1] (read-out: HCT116 Anti-proliferative activity IC50, HCT116 cells, cultured 3 days with compound, Cell-Titer Glo) was 5.6 nM; in assay [2] (setting [5]), 3.9 nM; in assay [3] (read-out: SKBR3 Anti-proliferative activity IC50, SKBR3 cells, cultured 5 days with compound, Cell-Titer Glo) it was 5.3 nM.

For `CC[C@@]1(O)C(=O)OCc2c1cc1n(c2=O)Cc2c-1nc1cc(F)c(Cl)c(F)c1c2CNC(=O)C(O)C1CC1` (stereo partly drawn) [Compound 23-P1, N-(((S)-9-chloro-4-ethyl-8,10-difluoro-4-hydroxy-3,14-dioxo-3,4,12,14-tetrahydro-1H-pyrano[3′,4′:6,7]indolizino[1,2-b]quinolin-11-yl)methyl)-2-cyclopropyl-2-hydroxyacetamide], the IC50 in assay [1] (Homo sapiens, HCT-116, 72 h, HCT116 cells, cultured 3 days with compound, Cell-Titer Glo, read-out: HCT116 Anti-proliferative activity IC50) is 7.9 nM; in assay [2] (Homo sapiens, OVCAR-3, 120 h, OVCAR3 cells, cultured 5 days with compound, Cell-Titer Glo, read-out: OVCAR3 Anti-proliferative activity IC50) it was 1.9 nM; in assay [3] (Homo sapiens, SK-BR-3, 120 h, SKBR3 cells, cultured 5 days with compound, Cell-Titer Glo, read-out: SKBR3 Anti-proliferative activity IC50), 5.8 nM.

Turning to `CC[C@@]1(O)C(=O)OCc2c1cc1n(c2=O)Cc2c-1nc1cc(F)c(Cl)c(F)c1c2CNC(=O)[C@@H](C)O` [Compound 25, (R)-N-(((S)-9-chloro-4-ethyl-8,10-difluoro-4-hydroxy-3,14-dioxo-3,4,12,14-tetrahydro-1H-pyrano[3′,4′:6,7]indolizino[1,2-b]quinolin-11-yl)methyl)-2-hydroxypropanamide], the values for the IC50 in assay [1] (setting [4]), in assay [2] (setting [5]) and in assay [3] (setting [6]) were 7.9 nM, 2 nM and 3.7 nM, respectively.

On to `CC[C@@]1(O)C(=O)OCc2c1cc1n(c2=O)Cc2c-1nc1cc(F)c(Cl)c(F)c1c2CNC(=O)[C@H](C)O` [Compound 26, (S)-N-(((S)-9-chloro-4-ethyl-8,10-difluoro-4-hydroxy-3,14-dioxo-3,4,12,14-tetrahydro-1H-pyrano[3′,4′:6,7]indolizino[1,2-b]quinolin-11-yl)methyl)-2-hydroxypropanamide], for which the IC50 in assay [1] (setting [4]) turned out to be 9.5 nM; in assay [2] (setting [5]), 1.6 nM; in assay [3] (setting [6]), 4.2 nM.

With `CC[C@@]1(O)C(=O)OCc2c1cc1n(c2=O)Cc2c-1nc1cc3c(c(Cl)c1c2CNC(=O)C(O)C1CC1)OCO3` (stereo partly drawn) [Compound 30, N-(((S)-15-chloro-7-ethyl-7-hydroxy-8,11-dioxo-7,8,11,13-tetrahydro-10H-[1,3]dioxolo[4,5-g]pyrano[3′,4′:6,7]indolizino[1,2-b]quinolin-14-yl)methyl)-2-cyclopropyl-2-hydroxyacetamide], the figures for the IC50 in assay [1] (setting [4]) and in assay [2] (setting [5]) were 4.6 nM and 0.4 nM, respectively.

For the molecule `CC[C@@]1(O)C(=O)OCc2c1cc1n(c2=O)Cc2c-1nc1cc(F)c(Cl)c(F)c1c2CNC(=O)CCO` [Compound 32, (S)-N-((9-chloro-4-ethyl-8,10-difluoro-4-hydroxy-3,14-dioxo-3,4,12,14-tetrahydro-1H-pyrano[3′,4′:6,7]indolizino[1,2-b]quinolin-11-yl)methyl)-3-hydroxypropanamide], the results for the IC50 in assay [1] (setting [4]) and in assay [2] (setting [5]) were 9.8 nM and 1 nM, respectively.

For `CC[C@@]1(O)C(=O)OCc2c1cc1n(c2=O)Cc2c-1nc1cc(Cl)c3c(c1c2CNC(=O)CO)CCC3` [Compound 33, (S)-N-((4-chloro-8-ethyl-8-hydroxy-9,12-dioxo-2,3,8,9,12,14-hexahydro-1H,11H-cyclopentadieno[f]pyrano[3′,4′:6,7]indolizino[1,2-b]quinolin-15-yl)methyl)-2-hydroxyacetamide], the figures for the half-maximal inhibitory concentration (IC50) in assay [1] (setting [4]) and in assay [2] (setting [5]) were 5.5 nM and 0.8 nM, respectively.

On to `CC[C@@]1(O)C(=O)OCc2c1cc1n(c2=O)Cc2c-1nc1cc(Cl)c3c(c1c2CNC(=O)C(O)C1CC1)CCC3` (stereo partly drawn) [Compound 34, N-(((S)-4-chloro-8-ethyl-8-hydroxy-9,12-dioxo-2,3,8,9,12,14-hexahydro-1H,11H-cyclopentadieno[f]pyrano[3′,4′:6,7]indolizino[1,2-b]quinolin-15-yl)methyl)-2-cyclopropyl-2-hydroxyacetamide], for which the values for the IC50 in assay [1] (setting [4]) and in assay [2] (setting [5]) were 2.3 nM and 0.6 nM, respectively.

Take `CC[C@@]1(O)C(=O)OCc2c1cc1n(c2=O)Cc2c-1nc1cc3c(c(F)c1c2CNC(=O)CO)OCO3` [Compound 38, (S)-N-((7-ethyl-15-fluoro-7-hydroxy-8,11-dioxo-7,8,11,13-tetrahydro-10H-[1,3]dioxolo[4,5-g]pyrano[3′,4′:6,7]indolizino[1,2-b]quinolin-14-yl)methyl)-2-hydroxyacetamide]: the half-maximal inhibitory concentration (IC50) in assay [2] (setting [5]) was determined as 2.9 nM.

For `CC[C@@]1(O)C(=O)OCc2c1cc1n(c2=O)Cc2c-1nc1cc3c(c(F)c1c2CNC(=O)CN)OCO3` [Compound 40, (S)-2-amino-N-((7-ethyl-15-fluoro-7-hydroxy-8,11-dioxo-7,8,11,13-tetrahydro-10H-[1,3]dioxolo[4,5-g]pyrano[3′,4′:6,7]indolizino[1,2-b]quinolin-14-yl)methyl)acetamide], in assay [2] (setting [5]), the IC50 was 11.3 nM.
